Reference: US7968542B2, “Thiophene compounds and thrombopoietin receptor activators” (Nissan Chemical Industries, Ltd., priority 2005, dated 2011)

Test system: Human bone marrow CD34+ cells
Experiment: Megakaryocyte colony stimulating activity (megakaryocyte colony forming method)
Type: cell-based
Settings: 11 days
Procedure: The action of the compounds of Synthetic Examples 1 to 43 of the present invention and Reference Synthetic Examples 29 and 30 on the proliferation, differentiation and maturation of megakaryocyte cells was measured by the megakaryocyte colony forming method using human bone marrow cells. Human bone marrow CD34^+ cells (Cambrex Bio Science Walkersville) were incubated on 2-well chamber slide for 11 days in a CO2 incubator (5% CO2, 37° C.) using MegaCult™-C (StemCell Technologies) containing 0.1% (v/v) of the compounds of Synthetic Examples dissolved in dimethyl sulfoxide. After dehydration and fixation, the cells were stained with an anti-glycoprotein IIb/IIIa antibody in accordance with the instruction by the manufacturer. The colonies consisting of at least 8 stained megakaryocyte cells in each well were counted under a microscope. The megakaryocyte colony counts in at least 2 wells were averaged.

| SMILES | Megakaryocyte colony count (drug concentration 0.1 μg/mL) | Megakaryocyte colony count (drug concentration 1 μg/mL) | Megakaryocyte colony count (drug concentration 0.3 μg/mL) |
| --- | --- | --- | --- |
| C/C(=N\NC(=O)c1ccc(C(=O)O)cc1)c1csc(-c2ccc(Cl)c(Cl)c2)c1O [Reference Synthetic Ex. 29, reference compound] | 2 | 31 |  |
| C/C(=N\NC(=O)c1ccc(C(=O)O)s1)c1csc(-c2ccc(Cl)c(Cl)c2)c1O [Reference Synthetic Ex. 30, reference compound] | 12 | 87 | 34 |
| CC(=NNC(=O)c1ccc(C(=O)N2CCN(C(C)C)CC2)s1)c1csc(-c2ccc(Cl)c(Cl)c2)c1O [Synthetic Ex. 1, 5-(4-isopropylpiperazine-1-carbonyl)thiophene-2-carboxylic acid {1-[5-(3,4-dichlorophenyl)-4-hydroxythiophen-3-yl]ethylidene}hydrazide] |  | 154 |  |
| CC(=NNC(=O)c1ccc(C(=O)N2CCOCC2)s1)c1csc(-c2ccc(Cl)c(Cl)c2)c1O.[K] [Synthetic Ex. 2, 5-(morpholine-4-carbonyl)thiophene-2-carboxylic acid {1-[5-(3,4-dichlorophenyl)-4-hydroxythiophen-3-yl]ethylidene}hydrazide potassium salt] |  | 239 |  |
| CCN(CC)C(=O)c1ccc(C(=O)NN=C(C)c2csc(-c3ccc(Cl)c(Cl)c3)c2O)s1.[K] [Synthetic Ex. 3, 5-{1-[5-(3,4-dichlorophenyl)-4-hydroxythiophen-3-yl]ethylidenehydrazinocarbonyl}thiophene-2-carboxylic acid diethylamide potassium salt] |  | 348 |  |
| CC(=NNC(=O)c1ccc(C(=O)N2CCCC2)s1)c1csc(-c2ccc(Cl)c(Cl)c2)c1O.[K] [Synthetic Ex. 4, 5-(pyrrolidine-1-carbonyl)thiophene-2-carboxylic acid {1-[5-(3,4-dichlorophenyl)-4-hydroxythiophen-3-yl]ethylidene}hydrazide potassium salt] | 84 | 148 |  |
| CC(=NNC(=O)c1ccc(C(=O)N(C)C)s1)c1csc(-c2ccc(Cl)c(Cl)c2)c1O.[K] [Synthetic Ex. 5, 5-{1-[5-(3,4-dichlorophenyl)-4-hydroxythiophen-3-yl]ethylidenehydrazinocarbonyl}thiophene-2-carboxylic acid dimethylamide potassium salt] |  | 274 |  |
| COCCNC(=O)c1ccc(C(=O)NN=C(C)c2csc(-c3ccc(Cl)c(Cl)c3)c2O)s1.[K] [Synthetic Ex. 6, 5-{1-[5-(3,4-dichlorophenyl)-4-hydroxythiophen-3-yl]ethylidenehydrazinocarbonyl}thiophene-2-carboxylic acid 2-methoxyethylamide potassium salt] | 115 | 151 |  |
| CCN(CC)C(=O)c1ccc(C(=O)NN=C(C)c2csc(-c3ccc(C(F)(F)F)cc3)c2O)s1 [Synthetic Ex. 8, 5-{1-[5-(4-trifluoromethylphenyl)-4-hydroxythiophen-3-yl]ethylidenehydrazinocarbonyl}thiophene-2-carboxylic acid diethylamide] | 147 | 227 |  |
| CC(=NNC(=O)c1ccc(C(=O)N2CCCC2)s1)c1csc(-c2ccc(C(F)(F)F)cc2)c1O.[K] [Synthetic Ex. 10, 5-(pyrrolidine-1-carbonyl)thiophene-2-carboxylic acid {1-[5-(4-trifluoromethylphenyl)-4-hydroxythiophen-3-yl]ethylidene}hydrazide potassium salt] | 105 | 208 |  |
| CC(=NNC(=O)c1ccc(C(=O)N(C)Cc2ccccn2)s1)c1csc(-c2ccc(C(F)(F)F)cc2)c1O.[K] [Synthetic Ex. 13, 5-{1-[5-(4-trifluoromethylphenyl)-4-hydroxythiophen-3-yl]ethylidenehydrazinocarbonyl}thiophene-2-carboxylic acid methyl-2-picolylamide potassium salt] | 61 |  |  |
| CC(=NNC(=O)c1ccc(C(=O)NCc2cccnc2)s1)c1csc(-c2ccc(Br)cc2)c1O [Synthetic Ex. 17, 5-{1-[5-(4-bromophenyl)-4-hydroxythiophen-3-yl]ethylidenehydrazinocarbonyl}thiophene-2-carboxylic acid 3-picolylamide] |  | 146 |  |
| CC(=NNC(=O)c1ccc(C(=O)NCc2ccncc2)s1)c1csc(-c2ccc(Br)cc2)c1O [Synthetic Ex. 18, 5-{1-[5-(4-bromophenyl)-4-hydroxythiophen-3-yl]ethylidenehydrazinocarbonyl]thiophene-2-carboxylic acid 4-picolylamide] |  | 125 |  |
| CC(=NNC(=O)c1ccc(C(=O)NCc2ccco2)s1)c1csc(-c2ccc(Br)cc2)c1O [Synthetic Ex. 19, 5-{1-[5-(4-bromophenyl)-4-hydroxythiophen-3-yl]ethylidenehydrazinocarbonyl}thiophene-2-carboxylic acid furan-2-ylmethylamide] |  | 171 |  |
| CNC(=O)c1ccc(C(=O)NN=C(C)c2csc(-c3ccc(Br)cc3)c2O)s1 [Synthetic Ex. 20, 5-{1-[5-(4-bromophenyl)-4-hydroxythiophen-3-yl]ethylidenehydrazinocarbonyl}thiophene-2-carboxylic acid methylamide] |  | 185 |  |
| CC(=NNC(=O)c1ccc(C(=O)NC(C)C)s1)c1csc(-c2ccc(Br)cc2)c1O [Synthetic Ex. 21, 5-{1-[5-(4-bromophenyl)-4-hydroxythiophen-3-yl]ethylidenehydrazinocarbonyl}thiophene-2-carboxylic acid isopropylamide] | 85 |  |  |
| C/C(=N\NC(=O)c1ccc(C(=O)NCc2ccccn2)s1)c1csc(-c2ccc(OC(F)(F)F)cc2)c1O [Synthetic Ex. 22] | 96 |  |  |
| CC(=NNC(=O)c1ccc(C(=O)NC(C)C)s1)c1csc(-c2ccc(C(F)(F)F)cc2)c1O [Synthetic Ex. 23, 5-{1-[5-(4-trifluoromethylphenyl)-4-hydroxythiophen-3-yl]ethylidenehydrazinocarbonyl}thiophene-2-carboxylic acid isopropylamide] |  | 134 |  |
| C/C(=N\NC(=O)c1ccc(C(=O)NCc2ccncc2)s1)c1csc(-c2ccc(Cl)cc2)c1O [Synthetic Ex. 24, 5-{1-5-[(4-chlorophenyl)-4-hydroxythiophen-3-yl]ethylidenehydrazinocarbonyl}thiophene-2-carboxylic acid 4-picolylamide] |  | 164 |  |
| CC(=NNC(=O)c1ccc(C(=O)NCc2ccccn2)s1)c1csc(-c2ccc(Cl)cc2)c1O [Synthetic Ex. 25, 5-{1-[5-(4-chlorophenyl)-4-hydroxythiophen-3-yl]ethylidenehydrazinocarbonyl]thiophene-2-carboxylic acid 2-picolylamide] |  | 118 |  |
| CC(=NNC(=O)c1ccc(C(=O)NCc2cccnc2)s1)c1csc(-c2ccc(Cl)cc2)c1O [Synthetic Ex. 26, 5-{1-[5-(4-chlorophenyl)-4-hydroxythiophen-3-yl]ethylidenehydrazinocarbonyl}thiophene-2-carboxylic acid 3-picolylamide] |  | 182 |  |
| CNC(=O)c1ccc(C(=O)NN=C(C)c2csc(-c3ccc(Cl)cc3)c2O)s1 [Synthetic Ex. 27, 5-{1-[5-(4-chlorophenyl)-4-hydroxythiophen-3-yl]ethylidenehydrazinocarbonyl}thiophene-2-carboxylic acid methylamide] |  | 201 |  |
| CC(=NNC(=O)c1ccc(C(=O)NC(C)C)s1)c1csc(-c2ccc(C)c(C)c2)c1O [Synthetic Ex. 28, 5-{1-[5-(3,4-dimethylphenyl)-4-hydroxythiophen-3-yl]ethylidenehydrazinocarbonyl]thiophene-2-carboxylic acid isopropylamide] |  | 105 |  |
| CC(=NNC(=O)c1ccc(C(=O)NCc2ccccn2)s1)c1csc(-c2ccc(Cl)c(Cl)c2)c1O [Synthetic Ex. 29, 5-{1-[5-(3,4-dichlorophenyl)-4-hydroxythiophen-3-yl]ethylidenehydrazinocarbonyl}thiophene-2-carboxylic acid 2-picolylamide] | 62 |  |  |
| CC(=NNC(=O)c1ccc(C(=O)NCc2ccncc2)s1)c1csc(-c2ccc(Cl)c(Cl)c2)c1O [Synthetic Ex. 30, 5-{1-[5-(3,4-dichlorophenyl)-4-hydroxythiophen-3-yl]ethylidenehydrazinocarbonyl}thiophene-2-carboxylic acid 4-picolylamide] | 145 | 271 |  |
| CC(=NNC(=O)c1ccc(C(=O)NCCc2ccncc2)s1)c1csc(-c2ccc(Cl)c(Cl)c2)c1O [Synthetic Ex. 31, 5-{1-[5-(3,4-dichlorophenyl)-4-hydroxythiophen-3-yl]ethylidenehydrazinocarbonyl}thiophene-2-carboxylic acid 2-(pyridin-4-yl)ethylamide] | 70 | 136 |  |
| CC(=NNC(=O)c1ccc(C(=O)NCc2ccnn2C)s1)c1csc(-c2ccc(Cl)c(Cl)c2)c1O [Synthetic Ex. 32, 5-{1-[5-(3,4-dichlorophenyl)-4-hydroxythiophen-3-yl]ethylidenehydrazinocarbonyl}thiophene-2-carboxylic acid (1-methyl-1H-pyrazol-5-ylmethyl)amide] | 55 |  |  |
| CC(=NNC(=O)c1ccc(C(=O)NCc2cc(C)on2)s1)c1csc(-c2ccc(Cl)c(Cl)c2)c1O [Synthetic Ex. 33, 5-{1-[5-(3,4-dichlorophenyl)-4-hydroxythiophen-3-yl]ethylidenehydrazinocarbonyl}thiophene-2-carboxylic acid (5-methylisoxazol-3-ylmethyl)amide] | 53 |  |  |
